Measured values reported in patent US20240066057A1, “METHOD FOR TREATING PAIN USING VANADIUM COMPOUNDS” (HUNAN FANGSHENGTAI MEDICAL TECHNOLOGY CO., LTD, priority 2020, published 2024).
“Also recorded” adds a separate entry of the source.

Columns and labels:
[1] = test system: Kunming mice with CFA-induced inflammation; assay: Von Frey test (50% paw withdrawal threshold) in CFA-induced inflammatory pain mouse model; type: in vivo
Procedure: 10 μL of complete Freund's adjuvant (CFA) was injected into the left hind foot of mice (♂ Kunming mice, 22 g to 40 g) to induce inflammation. 24 hours after the injection, a Von Frey test was performed to determine a pain threshold. That is, under the guidance of Dixon's Up-Down method, Von Frey fibers were used to induce the mechanical paw withdrawal of the mice, and data were collected and calculated to obtain their 50% paw withdrawal thresholds (paw withdrawal threshold or PWT for short, i.e. pain threshold). Mice were then divided into different groups, including a normal saline group, a positive control group, and a drug group, which were intraperitoneally injected with normal saline, an aspirin (acetylsalicylic acid, or ASA) solution and a solution of compound for testing respectively. A Von Frey test was then performed to monitor changes in pain threshold.
Mice were divided into three groups: a blank control group, an aspirin (ASA) group, and a drug group. In blank control group, the mice were given normal saline, deionized water or deionized water containing ≤5% DMSO at the same volume as that in the drug group. In ASA group, the mice were given the known analgesic drug ASA as the positive control for tested compounds. In drug group, the mice were given compounds for testing accordingly. Due attention was paid to observe whether the pain threshold rose, the period during which the rise was maintained and the magnitude of the rise, after the injection of a tested compound solution.

[2] = test system: Kunming mice with CFA-induced inflammation; assay: Effective concentration and plateau experiment of vanadium compounds, tail vein injection, mouse pain model; type: in vivo
[3] = test system: mice that suffered from pain due to induced inflammation; details: intrathecal injection, inflammatory pain; cited from earlier work
[4] = test system: Kunming mice with CFA-induced inflammation; assay: Von Frey test (50% paw withdrawal threshold) in CFA-induced inflammatory pain mouse model; type: in vivo; details: Example 10; G1 injected through the tail vein 0.49 mg/kg (atomic mass of vanadium); ASA group as control
[5] = Plateau experiment, dose (vanadium) A5/G3 0.25, A1/G1/H1 0.49, A4/G2/H2 0.97, H3 1.9 mg/kg, 6 samples, listed as G1
[6] = Example 3, intraperitoneal injection, A1 0.97 mg/kg (atomic mass of vanadium), S about 250 mg/kg
[7] = Example 5, intraperitoneal injection, C 1.9 mg/kg (atomic mass of vanadium), S about 250 mg/kg
[8] = Example 6, intraperitoneal injection, D 1.9 mg/kg, S about 250 mg/kg
[9] = Example 7, intraperitoneal injection, B 0.97 mg/kg (atomic mass of vanadium), S about 250 mg/kg
[10] = Example 8, intraperitoneal injection, E 0.97 mg/kg (atomic mass of vanadium), ASA about 250 mg/kg
[11] = Example 9, intraperitoneal injection, F 0.97 mg/kg (atomic mass of vanadium), ASA about 250 mg/kg
[12] = Example 11 (BEOV), intraperitoneal injection, I about 0.97 mg/kg (atomic mass of vanadium)
[13] = Example 11 (BMOV), intraperitoneal injection, H1 about 0.97 mg/kg (atomic mass of vanadium)
[14] = Example 12, intraperitoneal injection, J about 0.97 mg/kg (atomic mass of vanadium)
[15] = Example 13, intraperitoneal injection, K about 0.97 mg/kg (atomic mass of vanadium)
[16] = Example 14, intraperitoneal injection, L about 0.97 mg/kg (atomic mass of vanadium)
[17] = Example 15, intraperitoneal injection, M about 0.97 mg/kg (atomic mass of vanadium)
[18] = Example 16, intraperitoneal injection, N about 0.97 mg/kg (atomic mass of vanadium)
[19] = Example 17, intraperitoneal injection, O about 0.97 mg/kg (atomic mass of vanadium)
[20] = Example 18, intraperitoneal injection, P about 0.97 mg/kg (atomic mass of vanadium)
[21] = Example 19, intraperitoneal injection, Q about 0.97 mg/kg (atomic mass of vanadium)
[22] = Example 20, intraperitoneal injection, R about 0.97 mg/kg (atomic mass of vanadium)

For [Na+].[Na+].[Na+].[O]=[V]([O-])([O-])[O-] [Solution A, Sodium orthovanadate], which Analgesic effect ([1]; mouse, in vivo, ip) is on record?
The Analgesic effect was “have an analgesic effect”.

What about the “Effective duration compared with aspirin (ASA)” value ([1]; mouse, in vivo, ip) of the same compound?
Its value is “significantly longer duration of action than that of ASA; also recorded: longer than that of aspirin”.

And the Minimum effective dose ([2]; mice)?
Its Minimum effective dose is “about 1.0×10^−3 mg/kg”.

What about the “Blood concentration in mice equivalent to the plateau dose” value ([2]; plateau dose 0.49 mg/kg) of the same compound?
The value was 140 µM.

And the Analgesic effect [3]?
The Analgesic effect was “found the analgesic effect”.

Which results are given for O=S(=O)([O-])[O-].[O]=[V+2] [Solution G1, Vanadyl sulfate]?
Duration [2, 5]: >60 min; Maximum analgesic intensity (mean) [2, 5]: ~0.49 g; Duration [4]: >60 min; Onset time [4]: 0 to 15 after injection min

For CC(=O)Oc1ccccc1C(=O)O [Solution S, acetylsalicylic acid, reference compound], which Duration [1, 6] is on record?
The Duration was under 45 min.

What about the Onset time [1, 6] of the same compound?
Its Onset time is 15 to 30 after injection min.

And the Duration [1, 7]?
Its Duration is under 45 min.

And the Onset time [1, 7]?
Its Onset time is 15 to 30 after injection min.

What about the Duration ([1]; Example 5, intraperitoneal injection, C 1.9 mg/kg (atomic mass of vanadium), S about 250 mg/kg, listed as ASA) of the same compound?
The Duration was under 45 min.

And the Duration [1, 8]?
Its Duration is under 45 min.

And the Onset time [1, 8]?
The Onset time was 15 to 30 after injection min.

What about the Duration ([1]; Example 6, intraperitoneal injection, D 1.9 mg/kg, S about 250 mg/kg, listed as ASA) of the same compound?
Its Duration is under 45 min.

And the Duration [1, 9]?
Its Duration is under 45 min.

And the Onset time [1, 9]?
The Onset time was 15 to 30 after injection min.

And the Duration ([1]; Example 7, intraperitoneal injection, B 0.97 mg/kg (atomic mass of vanadium), S about 250 mg/kg, listed as ASA)?
Its Duration is under 45 min.

And the Duration [1, 10]?
The Duration was under 45 min.

What about the Onset time [1, 10] of the same compound?
Its Onset time is 15 to 30 after injection min.

What about the Duration ([1]; Example 8, intraperitoneal injection, E 0.97 mg/kg (atomic mass of vanadium), ASA about 250 mg/kg, listed as ASA) of the same compound?
The Duration was under 45 min.

What about the Duration [1, 11] of the same compound?
Its Duration is under 45 min.

What about the Onset time [1, 11] of the same compound?
The Onset time was 15 to 30 after injection min.

What about the Duration ([1]; Example 9, intraperitoneal injection, F 0.97 mg/kg (atomic mass of vanadium), ASA about 250 mg/kg, listed as ASA) of the same compound?
The Duration was under 45 min.

And the Duration [1, 12]?
Its Duration is under 45 min.

What about the Onset time [1, 12] of the same compound?
The Onset time was 15 to 30 after injection min.

And the Duration [1, 13]?
Its Duration is under 45 min.

And the Onset time [1, 13]?
Its Onset time is 0 to 15 after injection min.

And the Duration [1, 14]?
Its Duration is under 45 min.

And the Onset time [1, 14]?
The Onset time was 15 to 30 after injection min.

And the Duration [1, 15]?
Its Duration is under 45 min.

What about the Onset time [1, 15] of the same compound?
Its Onset time is 0 to 15 after injection min.

What about the Duration [1, 16] of the same compound?
The Duration was under 45 min.

And the Onset time [1, 16]?
The Onset time was 15 to 30 after injection min.

What about the Duration [1, 17] of the same compound?
Its Duration is under 45 min.

What about the Onset time [1, 17] of the same compound?
The Onset time was 15 to 30 after injection min.

And the Duration [1, 18]?
The Duration was under 45 min.

And the Onset time [1, 18]?
The Onset time was 15 to 30 after injection min.

What about the Duration [1, 19] of the same compound?
Its Duration is under 45 min.

And the Onset time [1, 19]?
Its Onset time is 15 to 30 after injection min.

What about the Duration [1, 20] of the same compound?
Its Duration is under 45 min.

And the Onset time [1, 20]?
Its Onset time is 15 to 30 after injection min.

What about the Duration [1, 21] of the same compound?
The Duration was under 45 min.

What about the Onset time [1, 21] of the same compound?
The Onset time was 15 to 30 after injection min.

And the Duration [1, 22]?
Its Duration is under 45 min.

And the Onset time [1, 22]?
The Onset time was 15 to 30 after injection min.

What about the “Time after injection at which the pain threshold returned to the baseline value” ([1]; intraperitoneal injection, doses as in Examples 3-9) of the same compound?
The value was “about 60 minutes”.

What about the Duration [4] of the same compound?
Its Duration is under 45 min.

And the Onset time [4]?
Its Onset time is 0 to 15 after injection min.
